Reference: US6287827A, “Halo- or hydroxy-substituted nocathiacin antibiotics” (Bristol-Myers Squibb Company, priority 2000, dated 2001)
≈ marks a conversion by molar mass, not a printed value.

Columns and labels:
Experiment in all cases: MIC, conventional serial broth dilution assay in nutrient broth (Difco)
Format in all cases: cell-based
[1] = system: Streptococcus pneumoniae/penicillin intermediate A27881
[2] = system: Staphylococcus aureus/homo methicillin resistant A27223
[3] = system: Moraxella catarrhalis/β-lactamase positive A25409
[4] = system: Staphylococcus aureus/QC/ATCC #29213 A24407; conditions: ATCC29213
[5] = system: Enterococcus faecium A24885
[6] = system: Streptococcus pneumoniae A9585
[7] = system: Staphylococcus haemolyticus A27298
[8] = system: Staphylococcus epidermidis A24548
[9] = system: Enterococcus avium A27456
[10] = system: Enterococcus faecalis A20688
[11] = system: Enterococcus faecalis A27519
[12] = system: Streptococcus pneumoniae/penicillin resistant A28272
[13] = system: Moraxella catarrhalis/β-lactamase positive A22344
[14] = system: Staphylococcus aureus/β-lactamase positive A15090
[15] = system: Staphylococcus aureus/Thiostrep. Res/Mutant A9497
[16] = system: Haemophilus influenzae/β-lactamase negative A20191
[17] = system: Staphylococcus aureus/209P/ATCC #6538P A9497
[18] = system: Bacillus subtilis/Thiostrep. Res/Mutant A9506A
[19] = system: Bacillus subtilis/ATCC #6633 A9506A; conditions: ATCC6633
[20] = system: Haemophilus influenzae/β-lactamase positive A21515
[21] = Staphylococcus aureus A27223 + 50% calf serum
[22] = Staphylococcus aureus/homo methicillin resistant A27223
[23] = A20688, Enterococcus faecalis A20688
[24] = A20688, Enterococcus faecalis A20688 +50% calf serum
[25] = Staphylococcus aureus A15090 + 50% calf serum
[26] = Staphylococcus aureus/β-lactamase positive A15090

C=C(NC(=O)c1csc(-c2nc3c(cc2O)-c2nc(cs2)C(=O)NC(C(C)O)C(=O)NC(=C(C)OC)c2nc(cs2)C(=O)NC2c4nc(cs4)C(=O)NC(COC(=O)c4c5c6c(c(F)ccc6n4O)COC(=O)C(OC4CC(C)(O)C(N(C)C)C(C)O4)C2OC5)c2nc-3cs2)n1)C(N)=O (stereo not shown) [5-Fluoronocathiacin, 5-fluoronocathiacin]
MIC [1]: ≤ 0.002 µg/mL | MIC [2, 21]: 0.003 µg/mL | MIC [2, 22]: 0.003 µg/mL (≈ 2.06 nM) | MIC [3]: 0.06 µg/mL (≈ 41.2 nM) | MIC [4]: 0.125 µg/mL (≈ 85.9 nM) | MIC [5]: 0.25 µg/mL (≈ 172 nM) | MIC [6]: ≤ 0.002 µg/mL | MIC [7]: 0.003 µg/mL (≈ 2.06 nM) | MIC [8]: 0.007 µg/mL (≈ 4.81 nM) | MIC [9]: 0.25 µg/mL (≈ 172 nM) | MIC [10, 23]: 0.25 µg/mL (≈ 172 nM) | MIC [10, 24]: 0.25 µg/mL (≈ 172 nM) | MIC [11]: 0.25 µg/mL (≈ 172 nM) | MIC [12]: ≤ 0.002 µg/mL | MIC [13]: 0.06 µg/mL (≈ 41.2 nM) | MIC [14, 25]: 0.125 µg/mL | MIC [14, 26]: 0.125 µg/mL (≈ 85.9 nM)

C=C(NC(=O)c1csc(-c2nc3c(cc2O)-c2nc(cs2)C(=O)NC(C(C)O)C(=O)NC(=C(C)OC)c2nc(cs2)C(=O)NC2c4nc(cs4)C(=O)NC(COC(=O)c4c5c6c(cc(F)cc6n4O)COC(=O)C(OC4CC(C)(O)C(N(C)C)C(C)O4)C2OC5)c2nc-3cs2)n1)C(N)=O (stereo not shown) [6-Fluoronocathiacin, 6-fluoronocathiacin]
MIC [1]: < 0.0005 µg/mL | MIC [15]: 16 µg/mL (≈ 11000 nM) | MIC [2, 21]: 0.015 µg/mL | MIC [2, 22]: 0.002 µg/mL (≈ 1.37 nM) | MIC [16]: > 16 µg/mL | MIC [17]: 0.002 µg/mL (≈ 1.37 nM) | MIC [4]: 0.002 µg/mL (≈ 1.37 nM) | MIC [18]: > 32 µg/mL | MIC [5]: 0.004 µg/mL (≈ 2.75 nM) | MIC [19]: 0.002 µg/mL (≈ 1.37 nM) | MIC [6]: < 0.0005 µg/mL | MIC [7]: 0.004 µg/mL (≈ 2.75 nM) | MIC [20]: > 16 µg/mL | MIC [8]: 0.004 µg/mL (≈ 2.75 nM) | MIC [10, 23]: < 0.001 µg/mL | MIC [10, 24]: 0.015 µg/mL (≈ 10.3 nM) | MIC [12]: < 0.0005 µg/mL | MIC [13]: 0.25 µg/mL (≈ 172 nM) | MIC [14, 25]: 0.015 µg/mL | MIC [14, 26]: 0.002 µg/mL (≈ 1.37 nM)
